Laboratory results published in the NIST ThermoML archive (doi:10.1016/j.jct.2015.01.004).
“And” between values parts separate entries of the source, which are not always exact repeats. Identical values can stand only once.

Assay: molar heat capacity at constant pressure; xn = mol fraction of the nth substance listed
Conditions: 100 kPa

[Si] [silicon] + [Li]
Conditions	molar heat capacity at constant pressure
127.62 K, Crystal of intercomponent compound 2, relaxation calorimeter, x2 = 0.804	12.78 J/K/mol
127.64 K, Crystal of intercomponent compound 2, relaxation calorimeter, x2 = 0.804	12.84 J/K/mol
130 K, Crystal of intercomponent compound 1, relaxation calorimetry + DSC, x2 = 0.81	12.64 J/K/mol
130 K, Crystal of intercomponent compound 2, relaxation calorimetry + DSC, x2 = 0.804	13.04 J/K/mol
131.69 K, Crystal of intercomponent compound 1, relaxation calorimetry, x2 = 0.81	12.88 J/K/mol
131.69 K, Crystal of intercomponent compound 2, relaxation calorimeter, x2 = 0.804	13.22 J/K/mol
131.71 K, Crystal of intercomponent compound 2, relaxation calorimeter, x2 = 0.804	13.3 J/K/mol
135.76 K, Crystal of intercomponent compound 1, relaxation calorimetry, x2 = 0.81	13.31 J/K/mol
135.76 K, Crystal of intercomponent compound 2, relaxation calorimeter, x2 = 0.804	13.64 J/K/mol
135.78 K, Crystal of intercomponent compound 2, relaxation calorimeter, x2 = 0.804	13.71 J/K/mol
139.83 K, Crystal of intercomponent compound 1, relaxation calorimetry, x2 = 0.81	13.71 J/K/mol
139.83 K, Crystal of intercomponent compound 2, relaxation calorimeter, x2 = 0.804	14.04 J/K/mol
139.85 K, Crystal of intercomponent compound 2, relaxation calorimeter, x2 = 0.804	14.09 J/K/mol
140 K, Crystal of intercomponent compound 1, relaxation calorimetry + DSC, x2 = 0.81	13.65 J/K/mol
140 K, Crystal of intercomponent compound 2, relaxation calorimetry + DSC, x2 = 0.804	14.07 J/K/mol
143.86 K, Crystal of intercomponent compound 1, relaxation calorimetry, x2 = 0.81	14.08 J/K/mol
143.87 K, Crystal of intercomponent compound 2, relaxation calorimeter, x2 = 0.804	14.45 J/K/mol
143.88 K, Crystal of intercomponent compound 2, relaxation calorimeter, x2 = 0.804	14.5 J/K/mol
147.97 K, Crystal of intercomponent compound 1, relaxation calorimetry, x2 = 0.81	14.51 J/K/mol
147.98 K, Crystal of intercomponent compound 2, relaxation calorimeter, x2 = 0.804	14.83 J/K/mol
147.99 K, Crystal of intercomponent compound 2, relaxation calorimeter, x2 = 0.804	14.94 J/K/mol
150 K, Crystal of intercomponent compound 1, relaxation calorimetry + DSC, x2 = 0.81	14.58 J/K/mol
150 K, Crystal of intercomponent compound 2, relaxation calorimetry + DSC, x2 = 0.804	15.01 J/K/mol
152 K, Crystal of intercomponent compound 1, relaxation calorimetry, x2 = 0.81	14.84 J/K/mol
152 K, Crystal of intercomponent compound 2, relaxation calorimeter, x2 = 0.804	15.17 J/K/mol
152.02 K, Crystal of intercomponent compound 2, relaxation calorimeter, x2 = 0.804	15.29 J/K/mol
156.1 K, Crystal of intercomponent compound 1, relaxation calorimetry, x2 = 0.81	15.17 J/K/mol
156.1 K, Crystal of intercomponent compound 2, relaxation calorimeter, x2 = 0.804	15.54 J/K/mol
156.12 K, Crystal of intercomponent compound 2, relaxation calorimeter, x2 = 0.804	15.62 J/K/mol
160 K, Crystal of intercomponent compound 1, relaxation calorimetry + DSC, x2 = 0.81	15.43 J/K/mol
160 K, Crystal of intercomponent compound 2, relaxation calorimetry + DSC, x2 = 0.804	15.88 J/K/mol
160.12 K, Crystal of intercomponent compound 1, relaxation calorimetry, x2 = 0.81	15.52 J/K/mol
160.13 K, Crystal of intercomponent compound 2, relaxation calorimeter, x2 = 0.804	15.86 J/K/mol
160.14 K, Crystal of intercomponent compound 2, relaxation calorimeter, x2 = 0.804	15.96 J/K/mol
164.23 K, Crystal of intercomponent compound 1, relaxation calorimetry, x2 = 0.81	15.85 J/K/mol
164.23 K, Crystal of intercomponent compound 2, relaxation calorimeter, x2 = 0.804	16.22 J/K/mol
164.24 K, Crystal of intercomponent compound 2, relaxation calorimeter, x2 = 0.804	16.27 J/K/mol
168.29 K, Crystal of intercomponent compound 1, relaxation calorimetry, x2 = 0.81	16.17 J/K/mol
168.29 K, Crystal of intercomponent compound 2, relaxation calorimeter, x2 = 0.804	16.53 J/K/mol
168.31 K, Crystal of intercomponent compound 2, relaxation calorimeter, x2 = 0.804	16.6 J/K/mol
170 K, Crystal of intercomponent compound 1, relaxation calorimetry + DSC, x2 = 0.81	16.22 J/K/mol
170 K, Crystal of intercomponent compound 2, relaxation calorimetry + DSC, x2 = 0.804	16.67 J/K/mol
172.36 K, Crystal of intercomponent compound 1, relaxation calorimetry, x2 = 0.81	16.41 J/K/mol
172.36 K, Crystal of intercomponent compound 2, relaxation calorimeter, x2 = 0.804	16.79 J/K/mol
172.38 K, Crystal of intercomponent compound 2, relaxation calorimeter, x2 = 0.804	16.9 J/K/mol
176.43 K, Crystal of intercomponent compound 1, relaxation calorimetry, x2 = 0.81	16.71 J/K/mol
176.43 K, Crystal of intercomponent compound 2, relaxation calorimeter, x2 = 0.804	17.06 J/K/mol and 17.19 J/K/mol
180 K, Crystal of intercomponent compound 1, relaxation calorimetry + DSC, x2 = 0.81	16.94 J/K/mol
180 K, Crystal of intercomponent compound 2, relaxation calorimetry + DSC, x2 = 0.804	17.39 J/K/mol
180.45 K, Crystal of intercomponent compound 1, relaxation calorimetry, x2 = 0.81	16.95 J/K/mol
180.45 K, Crystal of intercomponent compound 2, relaxation calorimeter, x2 = 0.804	17.33 J/K/mol
180.46 K, Crystal of intercomponent compound 2, relaxation calorimeter, x2 = 0.804	17.44 J/K/mol
184.56 K, Crystal of intercomponent compound 2, relaxation calorimeter, x2 = 0.804	17.58 J/K/mol
184.57 K, Crystal of intercomponent compound 1, relaxation calorimetry, x2 = 0.81	17.2 J/K/mol
184.57 K, Crystal of intercomponent compound 2, relaxation calorimeter, x2 = 0.804	17.69 J/K/mol
188.58 K, Crystal of intercomponent compound 2, relaxation calorimeter, x2 = 0.804	17.84 J/K/mol
188.59 K, Crystal of intercomponent compound 1, relaxation calorimetry, x2 = 0.81	17.45 J/K/mol
188.59 K, Crystal of intercomponent compound 2, relaxation calorimeter, x2 = 0.804	17.97 J/K/mol
190 K, Crystal of intercomponent compound 1, relaxation calorimetry + DSC, x2 = 0.81	17.6 J/K/mol
190 K, Crystal of intercomponent compound 2, relaxation calorimetry + DSC, x2 = 0.804	18.05 J/K/mol
192.69 K, Crystal of intercomponent compound 1, relaxation calorimetry, x2 = 0.81	17.73 J/K/mol
192.69 K, Crystal of intercomponent compound 2, relaxation calorimeter, x2 = 0.804	18.09 J/K/mol
192.71 K, Crystal of intercomponent compound 2, relaxation calorimeter, x2 = 0.804	18.27 J/K/mol
196.74 K, Crystal of intercomponent compound 2, relaxation calorimeter, x2 = 0.804	18.32 J/K/mol
196.78 K, Crystal of intercomponent compound 1, relaxation calorimetry, x2 = 0.81	17.96 J/K/mol
196.78 K, Crystal of intercomponent compound 2, relaxation calorimeter, x2 = 0.804	18.47 J/K/mol
200 K, Crystal of intercomponent compound 1, relaxation calorimetry + DSC, x2 = 0.81	18.2 J/K/mol
200 K, Crystal of intercomponent compound 2, relaxation calorimetry + DSC, x2 = 0.804	18.65 J/K/mol
200.77 K, Crystal of intercomponent compound 2, relaxation calorimeter, x2 = 0.804	18.54 J/K/mol
200.8 K, Crystal of intercomponent compound 1, relaxation calorimetry, x2 = 0.81	18.22 J/K/mol
200.8 K, Crystal of intercomponent compound 2, relaxation calorimeter, x2 = 0.804	18.74 J/K/mol
204.91 K, Crystal of intercomponent compound 2, relaxation calorimeter, x2 = 0.804	18.8 J/K/mol
204.92 K, Crystal of intercomponent compound 1, relaxation calorimetry, x2 = 0.81	18.43 J/K/mol
204.93 K, Crystal of intercomponent compound 2, relaxation calorimeter, x2 = 0.804	18.97 J/K/mol
208.92 K, Crystal of intercomponent compound 2, relaxation calorimeter, x2 = 0.804	19.05 J/K/mol
208.93 K, Crystal of intercomponent compound 1, relaxation calorimetry, x2 = 0.81	18.63 J/K/mol
208.94 K, Crystal of intercomponent compound 2, relaxation calorimeter, x2 = 0.804	19.19 J/K/mol
210 K, Crystal of intercomponent compound 1, relaxation calorimetry + DSC, x2 = 0.81	18.76 J/K/mol
210 K, Crystal of intercomponent compound 2, relaxation calorimetry + DSC, x2 = 0.804	19.19 J/K/mol
213.04 K, Crystal of intercomponent compound 2, relaxation calorimeter, x2 = 0.804	19.24 J/K/mol
213.05 K, Crystal of intercomponent compound 1, relaxation calorimetry, x2 = 0.81	18.87 J/K/mol
